In ChEMBL document CHEMBL4138146, “A Schmidt rearrangement-mediated synthesis of novel tetrahydro-benzo[1,4]diazepin-5-ones as potential anticancer and antiprotozoal agents” (Eur J Med Chem, 2017) one finds growth data, which are given here for one compound.

Type in all cases: functional
One assay deals with SNB-19. The assay is described as follows: Growth inhibition of human SNB19 cells assessed as cell growth at 10^-5 M incubated for 48 hrs by sulforhodamine B assay relative to control. The settings on record: SNB-19, 48 h, read-out: Activity.
In another assay the test system is 786-0. The assay is described as follows: Growth inhibition of human 786-0 cells assessed as cell growth at 10^-4 M incubated for 48 hrs by sulforhodamine B assay relative to control. The settings on record: 786-0, 48 h, read-out: Activity.
Another assay relates to NCI-H226. The assay can be described thus: Growth inhibition of human NCI-H226 cells assessed as cell growth at 10^-7 M incubated for 48 hrs by sulforhodamine B assay relative to control. The settings on record: NCI-H226, 48 h, read-out: Activity.
In another assay the test system is HOP-62. The assay can be described thus: Growth inhibition of human HOP62 cells assessed as cell growth at 10^-8 M incubated for 48 hrs by sulforhodamine B assay relative to control. The following applies: HOP-62, 48 h, read-out: Activity.
The subject of another assay is TK-10. The assay is described as follows: Growth inhibition of human TK10 cells assessed as cell growth at 10^-4 M incubated for 48 hrs by sulforhodamine B assay relative to control. The settings on record: TK-10, 48 h, read-out: Activity.

SMILES strings stand for the structures.

For the compound `CCCCOc1nc2ccccc2cc1C1CNC(=O)c2ccccc2N1` (stereo not given), in the assay with SNB-19, the growth at 10 µM was determined as 38%. Moreover, the growth at 100 µM in the assay with 786-0 is -76%; with TK-10 it was -62%. The growth at 0.1 µM in the assay on NCI-H226 was 79%. In addition, in the assay on HOP-62, the growth at 0.01 µM was 93%.
